# Read-outs that look alike come from different tables or passages of the source.
# Columns and labels:
# [1] = target: T1, cCaSR (Felis catus, UniProt C7FF08); assay: cell-based; details: agonist assay
# T1 sequence (C7FF08 1-1081): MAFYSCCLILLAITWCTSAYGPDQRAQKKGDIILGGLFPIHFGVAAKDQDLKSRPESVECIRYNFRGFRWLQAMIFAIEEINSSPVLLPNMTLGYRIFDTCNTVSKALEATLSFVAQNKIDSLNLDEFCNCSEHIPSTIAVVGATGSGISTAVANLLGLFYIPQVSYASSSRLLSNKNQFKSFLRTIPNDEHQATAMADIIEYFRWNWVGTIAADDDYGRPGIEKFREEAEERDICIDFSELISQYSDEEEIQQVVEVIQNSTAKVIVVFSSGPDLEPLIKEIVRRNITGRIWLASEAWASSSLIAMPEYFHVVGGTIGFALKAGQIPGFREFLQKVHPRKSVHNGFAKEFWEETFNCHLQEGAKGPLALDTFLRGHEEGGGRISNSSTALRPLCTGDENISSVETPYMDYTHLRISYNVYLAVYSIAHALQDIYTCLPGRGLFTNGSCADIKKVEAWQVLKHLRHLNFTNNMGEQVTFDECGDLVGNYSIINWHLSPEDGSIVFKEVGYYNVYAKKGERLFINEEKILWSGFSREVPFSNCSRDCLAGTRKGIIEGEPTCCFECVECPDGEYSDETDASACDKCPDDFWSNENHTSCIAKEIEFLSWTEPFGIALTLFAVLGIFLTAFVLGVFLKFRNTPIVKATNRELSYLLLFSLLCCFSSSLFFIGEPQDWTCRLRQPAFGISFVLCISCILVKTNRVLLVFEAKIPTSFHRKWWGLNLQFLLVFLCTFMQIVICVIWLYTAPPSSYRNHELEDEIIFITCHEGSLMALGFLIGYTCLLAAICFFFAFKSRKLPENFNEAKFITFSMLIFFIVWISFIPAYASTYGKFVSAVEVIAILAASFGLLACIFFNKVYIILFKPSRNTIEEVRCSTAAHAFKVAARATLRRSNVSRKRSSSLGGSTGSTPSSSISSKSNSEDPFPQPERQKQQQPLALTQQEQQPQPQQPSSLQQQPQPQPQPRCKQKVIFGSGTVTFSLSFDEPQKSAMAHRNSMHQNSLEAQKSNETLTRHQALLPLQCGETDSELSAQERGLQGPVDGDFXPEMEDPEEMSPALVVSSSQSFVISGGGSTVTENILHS
# Experimental: (§1) The cCaSR expression constructs were stably-transfected in the mammalian cell line, HEK293/ T-REx/ natClytin. Transfections were performed by electroporation, following standard methodologies. Stably-transfected target and mock pools were obtained after 2–3 weeks of antibiotic selection, and clones were selected for testing. In order to evaluate the activity of each clone, 10 mM Calcium was injected onto the cells and the resulting luminescence was measured.
# (§2) All compounds screened on the receptor were analysed in parallel with Calcium, on the HEK293/ T-REx/ natClytin-cCaSR or hCaSR stable or transient cell lines. Prior to the measurements, the cells were incubated with 10 µM of photoprotein substrate, Coelenterazine, prepared in Calcium-free Tyrode’s buffer at 37 °C for 3–4 h. All the data was captured using a FLIPR Tetra (Molecular Devices). A single or double injection protocol was used to capture the data for potential agonists and PAMs, respectively. The compounds tested were all prepared at desired concentration in Calcium-Free Tyrode’s buffer supplemented with 0.5% DMSO. For the activity determination of potential agonists, the single injection protocol was used, with CaCl2 as the positive control for each run. Each compound was injected into specific wells and the luminescence signal was measured for 1 min. for each compound. For potential PAMs, the double injection protocol was used. The first injection was identical to the one described above for potential agonists. A 20 min. resting period followed the first injection and a second injection of 0.5 mM CaCl2 in Calcium-free Tyrode’s buffer was injected to all wells, and the resulting luminescence signal was again measured for 1 min for each compound.
# (§3) Dose–response curves were established by plotting signal amplitudes versus agonist concentration. For each compound, the % of maximum response was determined using a standard formula as follows:
# (§4) The half maximal effective concentrations (EC50) were identified by nonlinear regression using a variable slope model with the equation Y = Bottom + (X^Hillslope)*(Top–Bottom)/ (X^HillSlope + EC50^HillSlope), where Y is the agonist concentration, Top and Bottom are the plateaus in the same units as Y and HillSlope is the Slope factor or Hill slope. […] In these cases the EC50 was noted as being higher than the maximum concentration used in the assay.
# [2] = target: T1, cCaSR; assay: cCaSR PAM luminescence assay, double injection with 0.5 mM CaCl2, HEK293/T-REx/natClytin-cCaSR; details: for EC50: read-out: EC50 PAM, positive allosteric modulator, presence of Ca2+
# Experimental: as §1, §2
# The half maximal effective concentrations (EC50) were identified by nonlinear regression using a variable slope model with the equation Y = Bottom + (X^Hillslope)*(Top–Bottom)/ (X^HillSlope + EC50^HillSlope), where Y is the agonist concentration, Top and Bottom are the plateaus in the same units as Y and HillSlope is the Slope factor or Hill slope. All calculations and plots were done using GraphPad Prism 8. […] In these cases the EC50 was noted as being higher than the maximum concentration used in the assay.
# [3] = target: T1, cCaSR
# Experimental: as §1, §2, §3, §4
# [4] = cCaSR activity, stable inducible cCaSR line, at least three wells
# [5] = Supplementary Table I, PAM assay, dash = no activity
# [6] = EC50 (M), stable inducible cCaSR line, > 0.01 M = maximal response not reached
# [7] = EC50 Ago (M), Supplementary Table I, > 0.01 M = maximal response not reached
# [8] = Supplementary Table I, agonist assay, dash = no activity
# [9] = agonist assay, stable inducible cCaSR line, > 0.01 M = maximal response not reached
# [10] = read-out: EC50 Ago, Supplementary Table I, agonist assay, > 0.01 M = maximal response not reached
Molecule,"EC50 PAM (M) [2, 5]","EC50 Ago (M) [3, 8]",also measured
N[C@@H](CCC(=O)NCC(=O)O)C(=O)O [γ-Glu-Gly],-,,"EC50 [1, 4]: > 0.01 M"
N[C@@H](CCC(=O)N[C@@H](Cc1ccccc1)C(=O)O)C(=O)O [γ-Glu-Phe],-,,"EC50 [1, 6]: 0.00232 M; EC50 [1, 4]: 0.001 to 0.01 M"
N[C@@H](CCC(=O)N[C@@H](Cc1ccc(O)cc1)C(=O)O)C(=O)O [γ-Glu-Tyr],-,,"EC50 [1, 6]: 0.00388 M; EC50 [1, 7]: 0.00388 M; EC50 [1, 4]: 0.001 to 0.01 M"
CC(C)C[C@H](NC(=O)C[C@H](N)C(=O)O)C(=O)O [β-Asp-Leu],-,,"EC50 [1, 7]: > 0.01 M; EC50 [1, 4]: > 0.01 M"
N[C@@H](CC(=O)NCC(=O)O)C(=O)O [β-Asp-Gly],-,,"EC50 [1, 4]: > 0.01 M"
N[C@@H](CCC(=O)N[C@@H](CCC(=O)O)C(=O)O)C(=O)O [γ-Glu-Glu],-,,"EC50 [1, 6]: 0.00207 M; EC50 [1, 7]: 0.00206 M; EC50 [1, 4]: 0.001 to 0.01 M"
N[C@H](CCC(=O)N[C@@H](Cc1c[nH]c2ccccc12)C(=O)O)C(=O)O [γ-D-Glu-Trp],-,,"EC50 [1, 6]: 0.0042 M"
CC[C@H](NC(=O)CC[C@H](N)C(=O)O)C(=O)O,-,,"EC50 [1, 4]: > 0.01 M"
NC(CC(F)C(=O)O)C(=O)O (racemic) [4-Fluoro-DL-glutamic acid],-,,"EC50 [1, 4]: > 0.01 M"
CSC[C@H](NC(=O)CC[C@H](N)C(=O)O)C(=O)NCC(=O)O [S-Methylglutathione],-,,"EC50 [1, 6]: 0.00442 M; EC50 [1, 7]: 0.00442 M; EC50 [1, 4]: 0.001 to 0.01 M"
O=P(O)(O)C(Cl)(Cl)P(=O)(O)O [Dichloromethylenediphosphonic acid],-,-,
N[C@@H](C[Se][Se]C[C@H](N)C(=O)O)C(=O)O.O [L-Selenocystine monohydrate],-,-,
COC(=O)[C@@H](N)CCCNC(N)=N[N+](=O)[O-] [NG-Nitro-L-Arginine Methyl Ester],-,-,
Cc1ccc(C(C)NC(C)c2cc3ccccc3[nH]2)cc1C (stereo not drawn) [Enamine Screening - Z1592615858],,-,EC50 ([2]; Supplementary Table I): 1.92 µM
COC(=O)C(NC1CCc2c(F)cccc21)c1cccc(C#N)c1 (stereo not drawn) [Enamine Screening - Z1362199910],,-,EC50 ([2]; Supplementary Table I): 58.9 µM
CC(NCC1CCCN(C)C1c1cccs1)c1cc(Cl)c(N)c(Cl)c1 (stereo not drawn) [Enamine Screening - Z1532507755],,-,EC50 ([2]; Supplementary Table I): 8.68 µM
"OC[C@H]1OC(O)[C@H](O)[C@@H](O)[C@@H]1O (stereo partly drawn) [D-( +)-Glucose, D-(+)-Glucose]",-,-,
NCCCNCCCCNCCCN [Spermine],-,,agonist activity on cCaSR (in words) [3]: agonists
N[C@@H](CCC(=O)N[C@@H](Cc1cnc[nH]1)C(=O)O)C(=O)O [γ-Glu-His],-,-,
"O=S(=O)([O-])C(F)(F)F.O=S(=O)([O-])C(F)(F)F.O=S(=O)([O-])C(F)(F)F.[Pr+3] [Pr^3+, Praseodymium(III) trifluoromethanesulfonate]",-,,"EC50 [3, 9]: 398 µM; EC50 [3, 10]: 398 µM; EC50 ([3]; read-out: cCaSR activity, agonist assay, stable inducible cCaSR line, at least three wells): < 1000 µM"
OC[C@H]1O[C@@](CO)(O[C@H]2O[C@H](CO)[C@@H](O)[C@H](O)[C@H]2O)[C@@H](O)[C@@H]1O [Sucrose],-,-,
N[C@@H](CCP(=O)(O)O)C(=O)O [L-2-Amino-4-phosphonobutyric acid],-,-,
Poly-L-histidine,-,-,
N[C@H](CCC(=O)O)C(=O)O [D-Glutamic acid],-,-,

Molecule,"EC50 PAM (M) [2, 5]","EC50 Ago (M) [3, 8]",also measured
"CN[C@H]1C[C@@H](N)[C@H](O)[C@@H](O[C@@H]2O[C@H](CO)[C@H](O)[C@@H]3OC4(O[C@H]23)O[C@H]([C@@H](N)CO)[C@H](O)[C@H](O)[C@H]4O)[C@@H]1O (stereo partly drawn) [Hygromycin B, reference compound]",-,-,
COC(=O)CC[C@H](N)C(=O)O [L-Glutamic Acid 5-Methyl Ester],-,-,
Cc1ccc(C2(CCNC(C)c3ccc(Cl)cc3)CCOC(C)(C)C2)cc1 (stereo not drawn) [Vitas M Labs Express Pick - STK530456],,-,EC50 ([2]; Supplementary Table I): 26.1 µM
N[C@@H](Cc1c[nH]cn1)C(=O)O [L-Histidine],-,-,
N[C@@H](CSSC[C@H](N)C(=O)O)C(=O)O [Cystine (disufide)],-,-,
N[C@@H](CCCCNC(=O)CC[C@H](N)C(=O)O)C(=O)O [γ-Glu-Lys],-,-,
CSCC[C@H](N)C(=O)O [L-Methionine],,,EC50 PAM (M) [2]: -; EC50 Ago (M) [3]: -
N[C@@H](Cc1ccc(O)cc1)C(=O)O [L-Tyrosine],-,-,
COC(=O)[C@@H](N)CCCN=C(N)N [L-Arginine methyl ester],-,-,
N[C@H](CC(=O)O)C(=O)O [D-Aspartic Acid],-,-,
COC(=O)[C@@H](N)CCCNC(=N)N[N+](=O)[O-].Cl [Nω-Nitro-L-arginine methyl ester hydrochloride],-,-,
CCOC(=O)CNC(=O)[C@H](CS)NC(=O)CC[C@H](N)C(=O)O [γ-Glu-Cys-Gly-Oet],-,-,
COc1ccc(C2C(CNC(C)c3ccncc3)CCN2C)cc1 (stereo not drawn) [Enamine Screening - Z1563602968],-,-,
NC(CCCCCCCCCC(=O)O)C(=O)O (stereo not drawn) [2-aminododecanedioic acid],-,-,
"CC(C)(Cc1ccc2ccccc2c1)NC[C@@H](O)COc1cccc(Cl)c1C#N [NPS 2143, reference compound]",-,-,
c1ccc(C2CCN(C3CCCc4ccccc43)C2)cc1 (stereo not drawn) [Enamine Screening - Z1627256025],,-,EC50 ([2]; Supplementary Table I): 797 µM
CC(NCC1Cc2ccccc2O1)c1ccc2ccccc2n1 (stereo not drawn) [Enamine Screening - Z1437387381],,-,EC50 ([2]; Supplementary Table I): 9.01 µM
COc1cc(C(O)(c2nc3ccccc3s2)C(F)(F)F)c(OC)cc1N (stereo not drawn) [Enamine Screening - Z317045236],,-,EC50 ([2]; Supplementary Table I): 2.42 µM
O=P(O)(O)CP(=O)(O)O [Methylenediphosphonic acid],-,,"EC50 [3, 9]: 1290 µM; EC50 [3, 10]: 1290 µM"
COc1ccc(CCC(C)NC2CCOc3ccccc32)cc1O (stereo not drawn) [Enamine Screening - Z1857407854],,-,EC50 ([2]; Supplementary Table I): 5.5 µM
NC(=O)CC[C@H](N)C(=O)O [L-Glutamine],-,-,
NCCC[C@H](N)C(=O)O [L-Ornithine],-,-,
O=C(O)[C@@H]1C[C@@H](O)CN1 [Hydroxyproline],-,-,
